Non-standard residues stand in square brackets, D forms with d. Residues, ends and D or L forms follow the SMILES beside them. ξ: configuration not given here. Pro(3ξ,4ξ-(CH2)4) = O=C(O)[C@H]1NCC2CCCCC21; Oic = O=C(O)[C@@H]1C[C@@H]2CCCC[C@@H]2N1; Tic = O=C(O)[C@@H]1Cc2ccccc2CN1; GABA = NCCCC(=O)O

Series [1] in a line: Toxicity to mouse RBC assessed as hemolytic activity at 100 uM. The series is classed as cell-based, Erythrocyte. The following applies: red blood cells, read-out: Activity.
A short description of series [2]: Toxicity to mouse RBC assessed as hemolytic activity at 25 uM. The series is classed as cell-based, Erythrocyte. To be noted: red blood cells, read-out: Activity.

As for `CC(=O)NCC(=O)N[C@@H](Cc1ccccc1)C(=O)NCC(=O)N1CC2CCCCC2[C@H]1C(=O)NCC(=O)N[C@@H](CCCCN)C(=O)NCC(=O)N1CC2CCCCC2[C@H]1C(=O)NCC(=O)N[C@@H](Cc1ccccc1)C(=O)NCC(=O)N1CC2CCCCC2[C@H]1C(=O)NCC(=O)N[C@@H](CCCCN)C(=O)NCC(=O)N[C@@H](CCCCN)C(=O)N[C@@H](CCCCN)C(=O)N[C@@H](CCCCN)C(=O)N[C@@H](CCCCN)C(N)=O` (stereo not given in full) (Ac-GFG[Pro(3ξ,4ξ-(CH2)4)]GKG[Pro(3ξ,4ξ-(CH2)4)]GFG[Pro(3ξ,4ξ-(CH2)4)]GKGKKKK-NH2), the hemolysis at 100 µM in series [1] stood at 3.3%. In series [2], the hemolysis at 25 µM was found to be 3.3%.
Turning to `CC(=O)NCC(=O)N[C@@H](Cc1ccccc1)C(=O)N1CC2CCCCC2[C@H]1C(=O)NCC(=O)N[C@@H](CCCCN)C(=O)N1CC2CCCCC2[C@H]1C(=O)NCC(=O)N[C@@H](Cc1ccccc1)C(=O)N1CC2CCCCC2[C@H]1C(=O)NCC(=O)N[C@@H](CCCCN)C(=O)N[C@@H](CCCCN)C(=O)N[C@@H](CCCCN)C(=O)N[C@@H](CCCCN)C(=O)N[C@@H](CCCCN)C(N)=O` (stereo not given in full) (Ac-GF[Pro(3ξ,4ξ-(CH2)4)]GK[Pro(3ξ,4ξ-(CH2)4)]GF[Pro(3ξ,4ξ-(CH2)4)]GKKKKK-NH2), in series [1], the hemolysis at 100 µM came to 5.9%. Further, the hemolysis at 25 µM in series [2] was 3.2%.
Regarding `CC(=O)NCC(=O)N[C@@H](Cc1ccccc1)C(=O)N[C@@H](Cc1ccccc1)C(=O)N1CC2CCCCC2[C@H]1C(=O)NCC(=O)N[C@@H](CCCCN)C(=O)N[C@@H](Cc1ccccc1)C(=O)N1CC2CCCCC2[C@H]1C(=O)NCC(=O)N[C@@H](Cc1ccccc1)C(=O)N[C@@H](Cc1ccccc1)C(=O)N1CC2CCCCC2[C@H]1C(=O)NCC(=O)N[C@@H](CCCCN)C(=O)N[C@@H](Cc1ccccc1)C(=O)N[C@@H](CCCCN)C(=O)N[C@@H](CCCCN)C(=O)N[C@@H](CCCCN)C(=O)N[C@@H](CCCCN)C(N)=O` (stereo not given in full) (Ac-GFF[Pro(3ξ,4ξ-(CH2)4)]GKF[Pro(3ξ,4ξ-(CH2)4)]GFF[Pro(3ξ,4ξ-(CH2)4)]GKFKKKK-NH2), the hemolysis at 100 µM in series [1] came to 27.3%. Further, in series [2], the hemolysis at 25 µM came out at 8.9%.
In the case of `CC(=O)NCCCC(=O)N[C@@H](Cc1ccccc1)C(=O)N1Cc2ccccc2C[C@H]1C(=O)N1[C@H](C(=O)NCCCC(=O)N[C@@H](CCCCN)C(=O)N2Cc3ccccc3C[C@H]2C(=O)N2[C@H](C(=O)NCCCC(=O)N[C@@H](Cc3ccccc3)C(=O)N3Cc4ccccc4C[C@H]3C(=O)N3[C@H](C(=O)NCCCC(=O)N[C@@H](CCCCN)C(=O)N4Cc5ccccc5C[C@H]4C(=O)N[C@@H](CCCCN)C(=O)N[C@@H](CCCCN)C(=O)N[C@@H](CCCCN)C(=O)N[C@@H](CCCCN)C(=O)N[C@@H](CCCCN)C(N)=O)C[C@@H]4CCCC[C@@H]43)C[C@@H]3CCCC[C@@H]32)C[C@@H]2CCCC[C@@H]21` (Ac-[GABA]F[Tic][Oic][GABA]K[Tic][Oic][GABA]F[Tic][Oic][GABA]K[Tic]KKKKK-NH2), the hemolysis at 100 µM in series [1] is 29.7%. The hemolysis at 25 µM in series [2] came out at 10.5%.
Taken in the same sequence, the figures for `NCCCC[C@H](NC(=O)[C@H](CCCCN)NC(=O)[C@H](CCCCN)NC(=O)[C@H](CCCCN)NC(=O)[C@@H]1Cc2ccccc2CN1C(=O)[C@H](CCCCN)NC(=O)CNC(=O)[C@@H]1C[C@@H]2CCCC[C@@H]2N1C(=O)[C@@H]1Cc2ccccc2CN1C(=O)[C@H](Cc1ccccc1)NC(=O)CNC(=O)[C@@H]1C[C@@H]2CCCC[C@@H]2N1C(=O)[C@@H]1Cc2ccccc2CN1C(=O)[C@H](CCCCN)NC(=O)CNC(=O)[C@@H]1C[C@@H]2CCCC[C@@H]2N1C(=O)[C@@H]1Cc2ccccc2CN1C(=O)[C@H](Cc1ccccc1)NC(=O)CN)C(N)=O` (H-GF[Tic][Oic]GK[Tic][Oic]GF[Tic][Oic]GK[Tic]KKKK-NH2) were 33.4% and 14.3%.
